Experimental data taken from ChEMBL document CHEMBL1132548, “Exploring the structure-activity relationships of [1-(4-tert-butyl-3'-hydroxy)benzhydryl-4-benzylpiperazine] (SL-3111), a high-affinity and selective delta-opioid receptor nonpeptide agonist ligand” (J Med Chem, 1999).

Legend:
Mu-type opioid receptor [1] = biological target: Mu-type opioid receptor (Rattus norvegicus, UniProt P33535); assay: In vitro inhibition of [3H]DAMGO (Tyr-D-Ala-Gly-(Me)-Phe-Gly-ol) binding to Opioid receptor mu 1 using rat brain membranes; format: cell membranes, Membrane
Chain of Mu-type opioid receptor (Rattus norvegicus, UniProt P33535) (P33535 whole entry): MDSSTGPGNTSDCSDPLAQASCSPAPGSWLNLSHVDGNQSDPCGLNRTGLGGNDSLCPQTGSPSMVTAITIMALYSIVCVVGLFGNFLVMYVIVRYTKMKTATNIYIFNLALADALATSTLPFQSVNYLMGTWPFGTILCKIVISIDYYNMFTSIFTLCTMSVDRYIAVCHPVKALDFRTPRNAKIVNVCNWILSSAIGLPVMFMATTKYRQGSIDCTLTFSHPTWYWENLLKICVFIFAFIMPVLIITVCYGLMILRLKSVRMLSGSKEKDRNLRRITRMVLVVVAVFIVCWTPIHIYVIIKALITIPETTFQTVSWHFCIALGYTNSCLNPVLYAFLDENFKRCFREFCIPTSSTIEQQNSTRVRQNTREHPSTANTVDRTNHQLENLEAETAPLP

[2] = biological target: T1, Delta-type opioid receptor (Rattus norvegicus, UniProt P33533); assay: In vitro inhibition of [3H]deltorphin binding to Opioid receptor delta 1 using rat brain membranes.; format: cell membranes, Membrane
T1 sequence (P33533 whole entry): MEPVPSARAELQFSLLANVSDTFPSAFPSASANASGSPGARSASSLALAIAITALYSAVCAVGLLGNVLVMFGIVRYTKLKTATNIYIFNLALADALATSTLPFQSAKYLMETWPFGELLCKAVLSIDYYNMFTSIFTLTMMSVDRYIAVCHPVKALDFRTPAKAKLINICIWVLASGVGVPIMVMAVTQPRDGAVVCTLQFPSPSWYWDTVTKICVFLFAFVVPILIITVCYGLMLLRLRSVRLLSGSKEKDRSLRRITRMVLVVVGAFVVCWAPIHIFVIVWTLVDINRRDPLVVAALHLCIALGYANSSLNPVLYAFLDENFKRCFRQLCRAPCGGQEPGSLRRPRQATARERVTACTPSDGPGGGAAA

[3] = biological target: Mu-type opioid receptor (Homo sapiens) (UniProt P35372); assay: Agonist activity using strips of guinea pig ileum longitudinal muscle myenteric plexus at 30 uM; format: functional, tissue-based
Chain of Mu-type opioid receptor (Homo sapiens) (P35372 whole entry): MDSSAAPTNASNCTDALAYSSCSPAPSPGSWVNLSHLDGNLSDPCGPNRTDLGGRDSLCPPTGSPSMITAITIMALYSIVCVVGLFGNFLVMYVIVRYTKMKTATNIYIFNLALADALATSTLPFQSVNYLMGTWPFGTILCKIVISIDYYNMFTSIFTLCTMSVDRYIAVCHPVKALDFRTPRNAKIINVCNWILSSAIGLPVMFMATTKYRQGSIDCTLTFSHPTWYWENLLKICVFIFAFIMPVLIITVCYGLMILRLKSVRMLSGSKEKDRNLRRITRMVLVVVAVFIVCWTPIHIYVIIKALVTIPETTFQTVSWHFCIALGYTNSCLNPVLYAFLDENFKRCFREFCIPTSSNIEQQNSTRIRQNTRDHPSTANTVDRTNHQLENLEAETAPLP

[4] = biological target: Mu-type opioid receptor (Mus musculus) (UniProt P42866); conditions: Vas deferens; 1 uM
Chain of Mu-type opioid receptor (Mus musculus) (P42866 whole entry): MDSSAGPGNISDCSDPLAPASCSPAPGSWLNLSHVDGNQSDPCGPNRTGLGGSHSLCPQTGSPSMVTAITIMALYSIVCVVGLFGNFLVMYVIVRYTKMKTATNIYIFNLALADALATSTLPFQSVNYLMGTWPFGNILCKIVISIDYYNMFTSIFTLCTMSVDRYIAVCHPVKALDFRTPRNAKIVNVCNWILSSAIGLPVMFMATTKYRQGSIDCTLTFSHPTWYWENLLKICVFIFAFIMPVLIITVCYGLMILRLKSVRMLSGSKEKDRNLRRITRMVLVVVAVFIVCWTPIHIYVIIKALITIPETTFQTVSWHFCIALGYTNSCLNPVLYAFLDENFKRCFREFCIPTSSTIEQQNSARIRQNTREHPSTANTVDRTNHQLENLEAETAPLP
Description: Agonist activity using electrically induced smooth muscle contraction of mouse vas deferens at 1 uM

Mu-type opioid receptor [5] = biological target: Mu-type opioid receptor (Mus musculus, UniProt P42866); assay: Agonist activity using electrically induced smooth muscle contraction of mouse vas deferens.; format: functional
Chain of Mu-type opioid receptor (Mus musculus, UniProt P42866) (P42866 whole entry): as above

[6] = biological target: Mu-type opioid receptor (Homo sapiens) (UniProt P35372); conditions: guinea pig; Ileum; at 10 µM
[7] = biological target: T1, Delta-type opioid receptor; assay: In vitro inhibition of [3H]- [p-Cl-Phe4]DPDPE binding to Opioid receptor delta 1 using rat brain membranes.; format: cell membranes, Membrane
[8] = biological target: Mu-type opioid receptor (Cavia porcellus) (UniProt P97266); assay: Agonist activity using strips of guinea pig ileum longitudinal muscle myenteric plexus at 10 uM; format: functional, tissue-based
Chain of Mu-type opioid receptor (Cavia porcellus) (P97266 whole entry): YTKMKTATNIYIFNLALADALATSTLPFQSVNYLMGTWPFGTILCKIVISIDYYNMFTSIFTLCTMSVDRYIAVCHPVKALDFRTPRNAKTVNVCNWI

[9] = biological target: Mu-type opioid receptor (Mus musculus) (UniProt P42866); assay: Agonist activity using electrically induced smooth muscle contraction of mouse vas deferens at 30 uM; format: functional, tissue-based
Mu-type opioid receptor [10] = biological target: Mu-type opioid receptor (Cavia porcellus, UniProt P97266); assay: Agonist activity using strips of guinea pig ileum longitudinal muscle myenteric plexus.; format: functional, tissue-based
Chain of Mu-type opioid receptor (Cavia porcellus, UniProt P97266) (P97266 whole entry): as above

Structure (SMILES)	IC50 (Mu-type opioid receptor [1])	IC50 [2]	IC50 (Mu-type opioid receptor [5])	also measured
CC(C)(C)c1ccc(C(c2cccc(O)c2)N2CCN(Cc3ccccc3)C[C@@H]2Cc2ccccc2)cc1 (stereo in doubt; 15c1) [listing 1 of 2 here]	> 80 µM	> 10 µM		
CC(C)(C)c1ccc(C(c2cccc(O)c2)N2CCN(Cc3ccccc3)C[C@@H]2Cc2ccccc2)cc1 (stereo in doubt; 15c1) [listing 2 of 2 here]				inhibition [3]: 0%; inhibition [4]: 10%
CC(C)(C)c1ccc(C(c2cccc(O)c2)N2CCN(Cc3ccccc3)C[C@@H]2Cc2ccccc2)cc1 (stereo in doubt; 15c2)	46.3 µM	21.3 µM		
CC(C)(C)c1ccc(C(c2cccc(O)c2)N2CCN(Cc3ccccc3)C[C@@H]2CO)cc1 (stereo partly drawn)	7.98 µM	0.038 µM	2.26 µM	inhibition [6]: 36%
O=C(OCc1ccc(O)cc1)N1CSC(=S)N(Cc2ccccc2)C1	38.3 µM			IC50 [7]: 44.7 µM
CC(C)(C)c1ccc(C(c2cccc(O)c2)N2CCC(Cc3ccccc3)CC2)cc1 (stereo not drawn)	22.9 µM	12.6 µM		
C[C@H]1CN(Cc2ccccc2)CCN1C(c1ccc(C(C)(C)C)cc1)c1cccc(O)c1 (stereo partly drawn)	3.3 µM	0.011 µM	0.29 µM	inhibition [3]: 0%
CC(C)(C)c1ccc(C(c2cccc(O)c2)N2CCN(Cc3ccccc3)C[C@@H]2COCc2ccccc2)cc1 (stereo partly drawn)	26 µM	0.038 µM		inhibition [8]: 0%; inhibition [9]: 44%
CC(C)(C)c1ccc(C(c2cccc(O)c2)C2CCN(Cc3ccccc3)CC2)cc1 (stereo not drawn)	4.3 µM	0.033 µM	0.39 µM	IC50 (Mu-type opioid receptor [10]): 15.6 µM
S=C1SCN(Cc2ccccc2)CN1Cc1ccccc1 [SULBENTINE]	27.9 µM			IC50 [7]: 28.6 µM
